Measured values published in patent publication US20150239833A1, “COMPOSITION, SYNTHESIS, AND USE OF NEW ARYLSULFONYL ISONITRILES” (DUQUESNE UNIVERSITY OF THE HOLY GHOST, priority 2014, published 2015).

melting point | SMILES
112 to 113 °C | [C-]#[N+]CS(=O)(=O)c1ccc(C)cc1 [compound 3b, 1-((isocyanomethyl)sulfonyl)-4-methylbenzene]
104 to 105 °C | [C-]#[N+]CS(=O)(=O)c1ccc2ccccc2c1 [compound 3d, 2-((isocyanomethyl)sulfonyl)naphthalene]
63 °C | [C-]#[N+]CS(=O)(=O)c1ccc(F)cc1 [compound 3e, 1-fluoro-4-((isocyanomethyl)sulfonyl)benzene]
109 to 110 °C (dec.) | [C-]#[N+]CS(=O)(=O)c1ccc(Cl)cc1 [compound 3f, 1-Chloro-4-((isocyanomethyl)sulfonyl)benzene]
90 to 91 °C | [C-]#[N+]CS(=O)(=O)c1c(OC)cccc1OC [compound 3p, 2-((Isocyanomethyl)sulfonyl)-1,3-dimethoxybenzene]
82 to 83 °C | [C-]#[N+]CS(=O)(=O)c1cc(Cl)cc(Cl)c1 [compound 3h, 1,3-dichloro-5-((isocyanomethyl)sulfonyl)benzene]
89 to 90 °C | [C-]#[N+]CS(=O)(=O)c1ccccc1 [compound 3a, ((Isocyanomethyl)sulfonyl)benzene]
101 to 102 °C | [C-]#[N+]CS(=O)(=O)c1ccc(OC)c(OC)c1 [compound 3k, 4-((isocyanomethyl)sulfonyl)-1,2-dimethoxybenzene]
